Laboratory results as given in paper PMC7320011, “Rationally designed ruthenium complexes for 1- and 2-photon photodynamic therapy” (Nature Communications, 2020).
Values joined by “and” are separate entries in the source; they are usually repeats but may differ in a detail not shown here. Identical values can stand only once. Like-named read-outs stand apart in the source and are kept apart here.

Experiments:
[1] = test system: mouse colon carcinoma (CT-26) cells; test: (Photo-)cytotoxicity on 2D cell monolayers, CT-26; details: for PI (480 nm): CT-26, dark vs 480 nm; for PI (540 nm): CT-26, dark vs 540 nm; for IC50: 1-3 as chloride salts
HeLa MCTS = test: (Photo-)cytotoxicity on 3D MCTS (ATP concentration); format: cell-based, human; details: for IC50: 1-3 as chloride salts; for PI (1P irradiation): dark vs 500 nm; for PI (2P irradiation): dark vs 800 nm
Procedure: The cytotoxicity of the compounds in 3D MCTS was assessed by measurement of the ATP concentration. MCTS were treated with increasing concentrations of the compound (2% DMSO, v%) by replacing 50% of the media with drug supplemented media and incubation for 12 h. After this time, the MCTS were divided in three identical groups. The first group was strictly kept in the dark. The second group was exposed to a 1-Photon irradiation (500 nm, 16.7 min, 10.0 mW cm^−2, and 10 J cm^−2) using a LED light source and the third group was exposed to a 2-Photon irradiation (800 nm, 10 J cm^−2 with a section interval of 5 μm) using a LSM 880 (Carl Zeiss, Germany) laser scanning confocal microscope equipped with a Coherent Chameleon 2-Photon laser. After the irradiation, all groups were incubated additional 48 h. The ATP concertation was measured using a CellTiter-Glo 3D Cell Viability kit (Promega) by measuring the generated chemiluminescence with an infinite M200 PRO (Tecan) plate reader.

[2] = In vivo time-dependent biodistribution (ICP-MS); set-up: species or system mouse; details: chloride salt, SW620/AD300 tumor-bearing nude mice
Procedure: (§1) Six weeks old nu/nu female mice were purchased from Charles River. For the tumor xenograft, 6 × 10^6 SW620/AD300 cells were subcutaneously (s.c.) injected with a 150 μL Matrigel and saline (1:1, v/v) suspension into the mice. After a week, the tumor volumes of the mice reached ~80 mm^3. All experiments were conducted in compliance with the ethical regulations for animal testing and received approval of the experimental animal managing committee of Sun Yat Sen University.
Three nude mice were tail-intravenous (i.v.) injected with 2 mg kg^−1 of the sample. One hour later, the mice were sacrificed and the major organs (including the heart, liver, spleen, lung, kidney, brain, intestine, and blood) were separated, weighted and ground. The grinded organ as well as the blood were digested using a 60% HNO3 solution for 3 days, and following this, diluted to a 2% HNO3 solution in water. The Ru content was determined with an ICP-MS apparatus and the results compared with the Ru references.
Six SW620/AD300 nude tumor-bearing nude mice were separated into three groups, and i.v. injected with 2 mg kg^−1 of the sample. 30 min, 1 h, 2 h later, the mice were euthanized and the distribution of the sample determined using the previous described method.

[3] = Singlet oxygen quantum yield, indirect evaluation (1O2 scavenger absorbance); format: physicochemical
Procedure: Indirect evaluation: measurement in acetonitrile: the sample was prepared in an air-saturated acetonitrile solution with an absorption of 0.2 at the irradiation wavelength, N,N-dimethyl-4-nitrosoaniline aniline (RNO, 24 µM) and imidazole (12 mM). Measurement in PBS buffer: the sample was prepared in an air-saturated PBS solution containing the complex with an absorption of 0.2 at the irradiation wavelength, N,N-dimethyl-4-nitrosoaniline aniline (RNO, 20 µM) and histidine (10 mM). The samples were irradiated for various time points with an Atlas Photonics LUMOS BIO irradiator. The absorption of the samples was constantly monitored with a SpectraMax M2 Microplate Reader (Molecular Devices). The difference in absorption (A0 − A) at 420 nm for the measurement in acetonitrile or at 440 nm for the measurement in PBS was determined. The difference in absorption was then plotted against the irradiation times and the slope of the linear regression calculated. The absorption of the sample was corrected with an absorption correction factor. The singlet oxygen quantum yields were calculated using the same formulas as used for the direct evaluation.

[4] = test system: doxorubicin-selected P-gp-overexpressing human colon cancer tumor (SW620/AD300); test: In vivo PDT on tumor-bearing nude mice; set-up: species or system mouse; details: chloride salt, 2 mg kg^−1 i.v.
Procedure: as §1
30 SW620/AD300 nude tumor-bearing nude mice were randomly separated into six groups, resulting in five mice for each group. After been anaesthetized, the mice was fixed in a warm three-axes holder. Before irradiation, the tumor site was disinfected with ethanol. The tumor was exposed to 1P or 2P light. Following the irradiation, the operative area was disinfection by iodophor.
Group 1: injected 7 (2 mg kg^−1, 50 μL) intravenously and irradiate under 800 nm laser (50 mW, 1 kHz, pulse width 35 fs, 5 s mm^−1) 1 h after injection; […]
(§2) The mice were anesthetized by injection of a 4% chloral hydrate aqueous solution (0.2 mL, 20 g^−1) before the treatment. The tumor volume and body weight were measured and recorded every 2 days. Tumor volume was calculated by the following formula:6 Volume=Length×Width^2/2.

[5] = In vivo tolerability: body weight, behaviour, H&E histology; set-up: species or system mouse; details: 2 mg kg^−1 i.v.
Procedure: as §2
The tumor and all major organs (including the heart, liver, spleen, lung, kidney, brain, intestine, and blood) were collected and a slice of each one was fixated with 4% paraformaldehyde. The obtained slices were stained with hematoxylin and eosin. The histological images were taken with a Carl Zeiss Axio Imager Z2 microscope.

[6] = read-out: IC50 540 nm (40 min, 9.5 J cm-2), CT-26, 540 nm
[7] = read-out: IC50 dark, CT-26, dark
[8] = 1P 500 nm, read-out: IC50 1P irradiation (500 nm, 10 J cm-2)
[9] = 2P 800 nm, section interval 5 μm, read-out: IC50 2P irradiation (800 nm, 10 J cm-2)

## COc1ccc(/C=C/c2ccnc(-c3cc(/C=C/c4ccc(OC)cc4)ccn3)c2)cc1.F[P-](F)(F)(F)(F)F.F[P-](F)(F)(F)(F)F.[Ru+2].c1ccc(-c2ccccn2)nc1.c1ccc(-c2ccccn2)nc1 [compound 7, [Ru(2,2′-bipyridine)2((E,E′)-4,4′-Bis[p-methoxystyryl]-2,2′-bipyridine)][PF6]2]
[1]
  PI (480 nm): > 143 and > 142.9
  PI (540 nm): > 111.1
[1]; [6]
  IC50: 0.9 ± 0.3 µM
[1]; [7]
  IC50: > 100 µM
HeLa MCTS; [8]
  IC50: > 6.8 µM and 6.8 µM
HeLa MCTS; [9]
  IC50: > 1.4 µM and 1.4 µM
HeLa MCTS
  PI (1P irradiation): > 44 and > 44.1
  PI (2P irradiation): > 250 and > 214.3
HeLa MCTS; dark, read-out: IC50 dark
  IC50: > 300 µM
[2]; 2 mg kg^−1 i.v. tail injection
  time until absorbed from the blood stream: ≤ 1 h
[2]; 2 mg kg^−1 i.v.
  organ accumulation (Ru content): high accumulation in the intestine and some accumulation in the tumor
[3]
  Singlet oxygen quantum yield, Indirect 450 nm CH3CN: 77%
  Singlet oxygen quantum yield, Indirect 450 nm PBS: 11%
  Singlet oxygen quantum yield, Indirect 540 nm CH3CN: 68%
  Singlet oxygen quantum yield, Indirect 540 nm PBS: 10%
[3]; acetonitrile, 450 and 540 nm, direct and indirect
  Singlet oxygen quantum yield in acetonitrile (range over methods and wavelengths): 68–77%
[3]; aqueous solution, 450 and 540 nm
  Singlet oxygen quantum yield in aqueous solution (range over wavelengths): 10–11%
[4]; 1P (500 nm, 36 J cm^−2) or 2P (800 nm, 50 mW) irradiation 1 h after injection, 80 mm^3 tumor
  tumor growth after one PDT treatment: drastically shrank until they were nearly eradicated
[4]; dark
  tumor growth without irradiation: kept growing
[5]; exposed to light
  histology of all other organs (H&E): did not show any significant effect
  histology of tumor tissue (H&E): pathological alterations caused by the PDT treatment
[5]; nude mice
  behaviour of treated mice: behaved normally, without signs of pain, stress or discomfort
  body weight of treated mice: did not lose or gain weight

## C(=C\c1ccnc(-c2cc(/C=C/c3ccccc3)ccn2)c1)/c1ccccc1.C(=C\c1ccnc(-c2cc(/C=C/c3ccccc3)ccn2)c1)/c1ccccc1.C(=C\c1ccnc(-c2cc(/C=C/c3ccccc3)ccn2)c1)/c1ccccc1.F[P-](F)(F)(F)(F)F.F[P-](F)(F)(F)(F)F.[Ru+2] [compound 1]
[1]
  PI (480 nm): > 4.9
  PI (540 nm): > 3.0
[1]; [6]
  IC50: 33.4 µM
[1]; [7]
  IC50: > 100 µM
[3]
  Singlet oxygen quantum yield, Indirect 450 nm CH3CN: 66%
  Singlet oxygen quantum yield, Indirect 450 nm PBS: 5%
  Singlet oxygen quantum yield, Indirect 540 nm CH3CN: 61%
  Singlet oxygen quantum yield, Indirect 540 nm PBS: 3%

## COc1ccc(/C=C/c2ccnc(-c3cc(/C=C/c4ccc(OC)cc4)ccn3)c2)cc1.COc1ccc(/C=C/c2ccnc(-c3cc(/C=C/c4ccc(OC)cc4)ccn3)c2)cc1.COc1ccc(/C=C/c2ccnc(-c3cc(/C=C/c4ccc(OC)cc4)ccn3)c2)cc1.F[P-](F)(F)(F)(F)F.F[P-](F)(F)(F)(F)F.[Ru+2] [compound 3, [Ru((E,E′)-4,4′-Bis[p-methoxystyryl]-2,2′-bipyridine)3][PF6]2]
[1]
  PI (480 nm): > 5.2
  PI (540 nm): > 4.3
[1]; [6]
  IC50: 23 µM
[1]; [7]
  IC50: > 100 µM
HeLa MCTS; [9]
  IC50: 87.3 ± 6.8 µM
HeLa MCTS
  PI (2P irradiation): > 1.1
[3]
  Singlet oxygen quantum yield, Indirect 450 nm CH3CN: 48%
  Singlet oxygen quantum yield, Indirect 450 nm PBS: 6%
  Singlet oxygen quantum yield, Indirect 540 nm CH3CN: 49%
  Singlet oxygen quantum yield, Indirect 540 nm PBS: 5%

## CN(C)c1ccc(/C=C/c2ccnc(-c3cc(/C=C/c4ccc(N(C)C)cc4)ccn3)c2)cc1.CN(C)c1ccc(/C=C/c2ccnc(-c3cc(/C=C/c4ccc(N(C)C)cc4)ccn3)c2)cc1.F[P-](F)(F)(F)(F)F.F[P-](F)(F)(F)(F)F.[Ru+2].c1ccc(-c2ccccn2)nc1 [compound 4, [Ru(2,2′-bipyridine)((E,E′)-4,4′-Bis[p-(N,N-dimethylamino)styryl]-2,2′-bipyridine)2][PF6]2]
[1]
  PI (480 nm): > 13.7
  PI (540 nm): > 10.4
[1]; [6]
  IC50: 9.6 µM
[1]; [7]
  IC50: > 100 µM
HeLa MCTS; [8]
  IC50: 78.3 ± 5.1 µM
HeLa MCTS; [9]
  IC50: 63 ± 4.2 µM
HeLa MCTS
  PI (1P irradiation): > 1.3
  PI (2P irradiation): > 1.6
[3]
  Singlet oxygen quantum yield, Indirect 450 nm CH3CN: 40%
  Singlet oxygen quantum yield, Indirect 450 nm PBS: 2%
  Singlet oxygen quantum yield, Indirect 540 nm CH3CN: 37%
  Singlet oxygen quantum yield, Indirect 540 nm PBS: 3%

## CN(C)c1ccc(/C=C/c2ccnc(-c3cc(/C=C/c4ccc(N(C)C)cc4)ccn3)c2)cc1.F[P-](F)(F)(F)(F)F.F[P-](F)(F)(F)(F)F.[Ru+2].c1ccc(-c2ccccn2)nc1.c1ccc(-c2ccccn2)nc1 [compound 6, [Ru(2,2′-bipyridine)2((E,E′)-4,4′-Bis[p-(N,N-dimethylamino)styryl]-2,2′-bipyridine)][PF6]2]
[1]
  PI (480 nm): > 41.7
  PI (540 nm): > 32.3
[1]; [6]
  IC50: 3.1 µM
[1]; [7]
  IC50: > 100 µM
HeLa MCTS; [8]
  IC50: 33.8 ± 3.4 µM
HeLa MCTS; [9]
  IC50: 26.5 ± 2.9 µM
HeLa MCTS
  PI (1P irradiation): > 8.9
  PI (2P irradiation): > 11.3
HeLa MCTS; dark, read-out: IC50 dark
  IC50: > 300 µM
[3]
  Singlet oxygen quantum yield, Indirect 450 nm CH3CN: 53%
  Singlet oxygen quantum yield, Indirect 450 nm PBS: 2%
  Singlet oxygen quantum yield, Indirect 540 nm CH3CN: 38%
  Singlet oxygen quantum yield, Indirect 540 nm PBS: 2%

## COc1ccc(/C=C/c2ccnc(-c3cc(/C=C/c4ccc(OC)cc4)ccn3)c2)cc1.COc1ccc(/C=C/c2ccnc(-c3cc(/C=C/c4ccc(OC)cc4)ccn3)c2)cc1.F[P-](F)(F)(F)(F)F.F[P-](F)(F)(F)(F)F.[Ru+2].c1ccc(-c2ccccn2)nc1 [compound 5, [Ru(2,2′-bipyridine)((E,E′)-4,4′-Bis[p-methoxystyryl]-2,2′-bipyridine)2][PF6]2]
[1]
  PI (480 nm): > 19.6
  PI (540 nm): > 16.1
[1]; [6]
  IC50: 6.2 µM
[1]; [7]
  IC50: > 100 µM
HeLa MCTS; [8]
  IC50: 19.3 ± 2.7 µM
HeLa MCTS; [9]
  IC50: 13.4 ± 3.9 µM
HeLa MCTS
  PI (1P irradiation): > 5.2
  PI (2P irradiation): > 7.5
[3]
  Singlet oxygen quantum yield, Indirect 450 nm CH3CN: 51%
  Singlet oxygen quantum yield, Indirect 450 nm PBS: 8%
  Singlet oxygen quantum yield, Indirect 540 nm CH3CN: 46%
  Singlet oxygen quantum yield, Indirect 540 nm PBS: 6%
